We go through five molecules from patent US20260284043A1, “COMPOUNDS FOR UPREGULATING UTROPHIN LEVELS IN MUSCLE CELLS AND METHOD OF APPLICATION THEREOF” (Peptris Technologies Private Limited, priority 2023, published 2026).

The test system of test [1] is Utrophin. Put plainly: Utrophin upregulation (mRNA fold change, RT-PCR) in differentiated C2C12 myoblast cells. In kind it is cell-based, mouse. The conditions noted are these: 24 hours; for fold change of utrophin: C2C12 myoblast cells differentiated seven days, 10 μM, FIG. 1. The procedure:
C2C12 myoblast cells are seeded in the well plate with a growth medium (10% FBS and DMEM). After they reached 70% confluence, the cells are added to the differentiation medium (2% HS and DMEM) and differentiated for seven days. Stock solutions are prepared for Sitagliptin and other DPP-IV inhibitors viz., Melogliptin, Linagliptin, Vildagliptin, and Teneligliptin in DMSO. The cells are treated with a final concentration of 10 μM stock solution for 24 hours. RNA isolation is carried out using the Qiagen assay kit and quantified using NanodropRT-PCR for Utrophin Upregulation.
Using the same protocol for Example 1, C2C 12 myoblast cells are treated with sitagliptin for 24 hours. Ezutromid is a known utrophin up-regulator and used as a positive control. RNA isolation and RT-PCR are done to quantify the fold change in utrophin mRNA expression. FIG. 2 presents the fold change in mRNA expression of Utrophin on C2C12 mouse skeletal muscle myoblasts at 10 uM sitagliptin compared to 10 uM Ezutromid.

Test [2] deals with D2.mdx mice. Put plainly: Treadmill test in D2.mdx mice. Particulars: 50 mg/kg p.o. q.d., 28 days, vs DMD-Control. The class given is in vivo, mouse. The procedure: (§1) All the functional experimental parameters are evaluated in mdx background wild-type mice and in D2.mdx mice (D2.B10-DMD mdx/J mice procured from Jackson laboratories (Strain #013141), Bar Harbor, Maine (ME), USA 04609. The test item, Sitagliptin 50 mg/kg, is orally (p.o.) administered once daily (q.d.) at a dose volume of 10 mL/kg. Sitagliptin suspended in formulation containing 0.1% Tween 20 and 0.5% Carboxymethyl cellulose (CMC) is administered once daily for 28 days via the oral route. The wild-type control and mdx control groups received the vehicle (0.5% Carboxy methyl cellulose (CMC) containing 0.1% Tween 20) alone. Body weight of the study animals is recorded before the study (pre-dose) and twice weekly/daily throughout the study. Animals are also monitored for clinical signs, mortality, and morbidity. […] Muscle function is assessed through grip strength test using a Grip strength meter (Orchid Scientific, Model No.: […], India), hanging test, treadmill running, and rotarod test (Orchid Scientific, India) in response to Vehicle and Sitagliptin (50 mg/kg, p.o.) treatments. […] The efficacy of Sitagliptin is evaluated by comparing the functional test parameters and serum CK levels of the treated group with that of the mdx-control group in comparison to the basal value of Wild-type group. […]

Test [3] concerns D2.mdx mice. Put plainly: Grip strength test in D2.mdx mice. In kind it is in vivo, mouse. The conditions noted are these: 50 mg/kg p.o. q.d., before treadmill stress, compared with wild type mice, FIG. 5A. The procedure:
as §1

Test [4] deals with D2.mdx mice. As to the kind of experiment: Hanging test in D2.mdx mice. Particulars: 50 mg/kg p.o. q.d., irrespective of treadmill stress, compared with wild type mice, FIGS. 6A and 6B. In kind it is in vivo, mouse. The procedure:
as §1

For test [5], the system named is D2.mdx mice. Put plainly: Rotarod test in D2.mdx mice. Particulars: 50 mg/kg p.o. q.d., 28 days, FIG. 7. In kind it is in vivo, mouse. The procedure: as §1
Test [6] deals with D2.mdx mice. Put plainly: Serum Creatinine Kinase level in D2.mdx mice after treadmill test. The class given is in vivo, mouse. Particulars: 50 mg/kg p.o. q.d., 28 days, measured within 30 minutes after treadmill test, FIG. 8.
Method: All the functional experimental parameters are evaluated in mdx background wild-type mice and in D2.mdx mice (D2.B10-DMD mdx/J mice procured from Jackson laboratories (Strain #013141), Bar Harbor, Maine (ME), USA 04609. The test item, Sitagliptin 50 mg/kg, is orally (p.o.) administered once daily (q.d.) at a dose volume of 10 mL/kg. Sitagliptin suspended in formulation containing 0.1% Tween 20 and 0.5% Carboxymethyl cellulose (CMC) is administered once daily for 28 days via the oral route. The wild-type control and mdx control groups received the vehicle (0.5% Carboxy methyl cellulose (CMC) containing 0.1% Tween 20) alone. […] All three group mice (Wild-type, DMD-Control & DMD-Sitagliptin) underwent functional tests at week 0 (Basal-Day 0), week 2 (Day 14) and at the end of the study (week 4 or Day 28). […] Blood samples are collected for Creatine kinase (CK) analysis 30 min after Treadmill functional test on Day 0, 14 & Day 28. The efficacy of Sitagliptin is evaluated by comparing the functional test parameters and serum CK levels of the treated group with that of the mdx-control group in comparison to the basal value of Wild-type group. […] Treadmill, grip strength, hanging, rotarod, and creatine kinase tests are recorded on day 0, day 14 and day 28. […] Serum Creatinine Kinase level is measured within 30 minutes after the mice are subjected to Treadmill tests.
Test [7] concerns D2.mdx mice. As to the kind of experiment: 28th day summary of functional tests in D2.mdx mouse models. The class given is in vivo. The conditions noted are these: 50 mg/kg p.o. q.d., day 28, vs DMD disease control mice, FIG. 9A-9F. The procedure:
as §1

As for `Cc1cc(N2CCN([C@@H]3CN[C@H](C(=O)N4CCSC4)C3)CC2)n(-c2ccccc2)n1` [Teneligliptin, {(2S,4S)-4-[4-(3-Methyl-1-phenyl-1H-pyrazol-5-yl)-1-piperazinyl]-2-pyrrolidinyl}(1,3-thiazolidin-3-yl)methanone], the “fold change of utrophin” value in test [1] is “capable of upregulating utrophin levels”.
In the case of `N[C@@H](CC(=O)N1CCn2c(nnc2C(F)(F)F)C1)Cc1cc(F)c(F)cc1F` [Sitagliptin, (R)-4-oxo-4-[3-(trifluoromethyl)-5,6-dihydro[1,2,4]triazolo[4,3-a]pyrazin-7(8H)-yl]-1-(2,4,5-trifluorophenyl)butan-2-amine], the “fold change in mRNA expression of Utrophin compared to Ezutromid” value in test [1] (C2C12 mouse skeletal muscle myoblasts, 10 uM sitagliptin vs 10 uM Ezutromid (positive control), FIG. 2) is listed as “superior upregulation of utrophin compared Ezutromid”. Moreover, in test [1], the “fold change of utrophin” value is listed as “capable of upregulating utrophin levels”. Besides, in test [2] (FIG. 4A), the “distance travelled in 30 mins (treadmill)” value was “significant and sustained improvement”. Also, in test [2] (FIG. 4B), the “time to exhaust (treadmill)” value was “significant and sustained improvement”. In test [3], the “normalized grip strength pre-treadmill” value is given as “could grip as well as the wild type mice”. In test [4], the “hanging latency pre- and post-treadmill” value is “perform comparably with wild type mice”. In test [5], the “latency to fall (rotarod)” value is listed as “sustained improvements in overall muscle coordination”. Also, in test [6], the “Serum Creatinine Kinase levels” value is on record as “significant reductions”. The “all functional parameters (distance travelled, time to exhaust, grip strength, hanging test), 28th day summary” value in test [7] was “robust improvement in all the functional parameters”.
For the molecule `N#C[C@@H]1C[C@H](F)CN1C(=O)CN[C@@H]1CC[C@H](Cn2cncn2)C1` [Melogliptin, (2S,4S)-4-fluoro-1-[2-[[(1R,3S)-3-(1,2,4-triazol-1-ylmethyl)cyclopentyl]amino]acetyl]pyrrolidine-2 carbonitrile], the “fold change of utrophin” value in test [1] was “capable of upregulating utrophin levels”.
With `N#C[C@@H]1CCCN1C(=O)CNC12CC3CC(CC(O)(C3)C1)C2` [Vildagliptin, (S)-1-[2-(3-Hydroxyadamantan-1-ylamino)acetyl]pyrrolidine-2-carbonitrile], the “fold change of utrophin” value in test [1] was “capable of upregulating utrophin levels”.
As to `CC#CCn1c(N2CCC[C@@H](N)C2)nc2c1c(=O)n(Cc1nc(C)c3ccccc3n1)c(=O)n2C` [Linagliptin, 8-[(3R)-3-Aminopiperidin-1-yl]-7-(but-2-yn-1-yl)-3-methyl-1-[(4-methylquinazolin-2-yl)methyl]-3,7-dihydro-1H-purine-2,6-dione], the “fold change of utrophin” value in test [1] is “capable of upregulating utrophin levels”.
